Assay results reported in PubChem BioAssay (NCI).
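At the GI50, growth is halved. TGI: total growth inhibition.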

Assays:
Assay in all cases: growth of human tumour cells (NCI), 384-well format
HS 578T breast = tested on: HS 578T breast
MOLT-4 leukemia = tested on: MOLT-4 leukemia
A498 renal = tested on: A498 renal
KM12 colon = tested on: KM12 colon
HCT-116 colon = tested on: HCT-116 colon
TK-10 renal = tested on: TK-10 renal
MDA-MB-435 melanoma = tested on: MDA-MB-435 melanoma
BT-549 breast = tested on: BT-549 breast
SR leukemia = tested on: SR leukemia
SN12C renal = tested on: SN12C renal
UO-31 renal = tested on: UO-31 renal
MCF7 breast = tested on: MCF7 breast
SF-295 CNS = tested on: SF-295 CNS
RXF 393 renal = tested on: RXF 393 renal
HCT-15 colon = tested on: HCT-15 colon
MDA-MB-231 breast = tested on: MDA-MB-231 breast
786-0 renal = tested on: 786-0 renal
M14 melanoma = tested on: M14 melanoma
A549 NSCLC = tested on: A549 NSCLC
OVCAR-3 ovarian = tested on: OVCAR-3 ovarian
T-47D breast = tested on: T-47D breast
SF-268 CNS = tested on: SF-268 CNS
CCRF-CEM leukemia = tested on: CCRF-CEM leukemia
OVCAR-4 ovarian = tested on: OVCAR-4 ovarian
IGROV1 ovarian = tested on: IGROV1 ovarian
NCI-H460 NSCLC = tested on: NCI-H460 NSCLC
HCC-2998 colon = tested on: HCC-2998 colon
EKVX NSCLC = tested on: EKVX NSCLC
U251 glioblastoma = tested on: U251 glioblastoma
COLO 205 colon = tested on: COLO 205 colon
PC-3 prostate = tested on: PC-3 prostate
NCI-H322M lung = tested on: NCI-H322M lung
SK-OV-3 ovarian = tested on: SK-OV-3 ovarian
SK-MEL-28 melanoma = tested on: SK-MEL-28 melanoma
CAKI-1 renal = tested on: CAKI-1 renal
HOP-92 NSCLC = tested on: HOP-92 NSCLC
MDA-MB-468 breast = tested on: MDA-MB-468 breast
OVCAR-8 ovarian = tested on: OVCAR-8 ovarian
MALME-3M melanoma = tested on: MALME-3M melanoma
HT29 colon = tested on: HT29 colon
SK-MEL-5 melanoma = tested on: SK-MEL-5 melanoma
NCI-H522 lung = tested on: NCI-H522 lung
NCI-H226 lung = tested on: NCI-H226 lung
HOP-62 NSCLC = tested on: HOP-62 NSCLC
OVCAR-5 ovarian = tested on: OVCAR-5 ovarian
NCI/ADR-RES ovarian = tested on: NCI/ADR-RES ovarian
DU-145 prostate = tested on: DU-145 prostate
SNB-75 CNS = tested on: SNB-75 CNS
NCI-H23 lung = tested on: NCI-H23 lung
SF-539 CNS = tested on: SF-539 CNS
UACC-257 melanoma = tested on: UACC-257 melanoma
SW-620 colon = tested on: SW-620 colon
UACC-62 melanoma = tested on: UACC-62 melanoma
ACHN renal = tested on: ACHN renal
HL-60(TB) leukemia = tested on: HL-60(TB) leukemia
SNB-19 CNS = tested on: SNB-19 CNS
LOX IMVI melanoma = tested on: LOX IMVI melanoma
RPMI-8226 leukemia = tested on: RPMI-8226 leukemia

Work on CN1CC[C@@H](NC(=O)Nc2ccc(C#N)cc2)C[C@@H]1c1nc2ccccc2[nH]1 yielded a GI50 (HS 578T breast) of over 60 µM, a TGI (HS 578T breast) of over 100 µM and a GI50 (MOLT-4 leukemia) of 18.2 µM. The TGI (MOLT-4 leukemia) was 36.4 µM, the GI50 (A498 renal) was over 85.2 µM and the TGI (A498 renal) was over 100 µM. For the same compound, the GI50 (KM12 colon) was over 100 µM, the TGI (KM12 colon) was over 100 µM and the GI50 (HCT-116 colon) was 61.2 µM. It also gave a TGI (HCT-116 colon) of over 100 µM, a GI50 (TK-10 renal) of over 100 µM and a TGI (TK-10 renal) of over 100 µM. It also gave a GI50 (MDA-MB-435 melanoma) of over 100 µM, a TGI (MDA-MB-435 melanoma) of over 100 µM and a GI50 (BT-549 breast) of over 49.4 µM. For the same compound, the TGI (BT-549 breast) was over 93.7 µM, the GI50 (SR leukemia) was 23.4 µM and the TGI (SR leukemia) was 65.2 µM. For the same compound, the GI50 (SN12C renal) was over 100 µM, the TGI (SN12C renal) was over 100 µM and the GI50 (UO-31 renal) was over 88.5 µM. It also gave a TGI (UO-31 renal) of over 100 µM, a GI50 (MCF7 breast) of over 72.1 µM and a TGI (MCF7 breast) of over 100 µM. It also gave a GI50 (SF-295 CNS) of over 80.7 µM, a TGI (SF-295 CNS) of over 100 µM and a GI50 (RXF 393 renal) of over 46.8 µM. The TGI (RXF 393 renal) was over 86.7 µM, the GI50 (HCT-15 colon) was over 87.8 µM and the TGI (HCT-15 colon) was over 100 µM. The GI50 (MDA-MB-231 breast) was 61.4 µM, the TGI (MDA-MB-231 breast) was over 100 µM and the GI50 (786-0 renal) was 40.4 µM. It also gave a TGI (786-0 renal) of over 100 µM, a GI50 (M14 melanoma) of over 100 µM and a TGI (M14 melanoma) of over 100 µM. The GI50 (A549 NSCLC) was over 87.9 µM, the TGI (A549 NSCLC) was over 100 µM and the GI50 (OVCAR-3 ovarian) was over 67.4 µM. The TGI (OVCAR-3 ovarian) was over 100 µM, the GI50 (T-47D breast) was 37.9 µM and the TGI (T-47D breast) was over 100 µM. The GI50 (SF-268 CNS) was over 86.7 µM, the TGI (SF-268 CNS) was over 100 µM and the GI50 (CCRF-CEM leukemia) was 74.7 µM. For the same compound, the TGI (CCRF-CEM leukemia) was over 100 µM, the GI50 (OVCAR-4 ovarian) was 92.4 µM and the TGI (OVCAR-4 ovarian) was over 100 µM. For the same compound, the GI50 (IGROV1 ovarian) was 75.1 µM, the TGI (IGROV1 ovarian) was over 100 µM and the GI50 (NCI-H460 NSCLC) was over 100 µM. It also gave a TGI (NCI-H460 NSCLC) of over 100 µM, a GI50 (HCC-2998 colon) of 47.7 µM and a TGI (HCC-2998 colon) of over 100 µM. For the same compound, the GI50 (EKVX NSCLC) was over 93.7 µM, the TGI (EKVX NSCLC) was over 100 µM and the GI50 (U251 glioblastoma) was over 100 µM. For the same compound, the TGI (U251 glioblastoma) was over 100 µM, the GI50 (COLO 205 colon) was over 85.1 µM and the TGI (COLO 205 colon) was over 100 µM. For the same compound, the GI50 (PC-3 prostate) was over 100 µM, the TGI (PC-3 prostate) was over 100 µM and the GI50 (NCI-H322M lung) was over 100 µM. It also gave a TGI (NCI-H322M lung) of over 100 µM, a GI50 (SK-OV-3 ovarian) of over 100 µM and a TGI (SK-OV-3 ovarian) of over 100 µM. The GI50 (SK-MEL-28 melanoma) was over 82.8 µM, the TGI (SK-MEL-28 melanoma) was over 100 µM and the GI50 (CAKI-1 renal) was over 100 µM. For the same compound, the TGI (CAKI-1 renal) was over 100 µM, the GI50 (HOP-92 NSCLC) was 39.5 µM and the TGI (HOP-92 NSCLC) was 97.4 µM. The GI50 (MDA-MB-468 breast) was 32.9 µM, the TGI (MDA-MB-468 breast) was over 95.9 µM and the GI50 (OVCAR-8 ovarian) was over 100 µM. It also gave a TGI (OVCAR-8 ovarian) of over 100 µM, a GI50 (MALME-3M melanoma) of 24.4 µM and a TGI (MALME-3M melanoma) of over 61.4 µM. It also gave a GI50 (HT29 colon) of 69.3 µM, a TGI (HT29 colon) of over 100 µM and a GI50 (SK-MEL-5 melanoma) of 18.2 µM. For the same compound, the TGI (SK-MEL-5 melanoma) was over 100 µM, the GI50 (NCI-H522 lung) was over 79.8 µM and the TGI (NCI-H522 lung) was over 100 µM. For the same compound, the GI50 (NCI-H226 lung) was over 59.6 µM, the TGI (NCI-H226 lung) was over 100 µM and the GI50 (HOP-62 NSCLC) was over 100 µM. It also gave a TGI (HOP-62 NSCLC) of over 100 µM, a GI50 (OVCAR-5 ovarian) of over 87.8 µM and a TGI (OVCAR-5 ovarian) of over 100 µM. The GI50 (NCI/ADR-RES ovarian) was over 100 µM, the TGI (NCI/ADR-RES ovarian) was over 100 µM and the GI50 (DU-145 prostate) was 73.8 µM. It also gave a TGI (DU-145 prostate) of over 100 µM, a GI50 (SNB-75 CNS) of over 58.6 µM and a TGI (SNB-75 CNS) of over 95.9 µM. For the same compound, the GI50 (NCI-H23 lung) was over 75.2 µM, the TGI (NCI-H23 lung) was over 100 µM and the GI50 (SF-539 CNS) was over 100 µM. For the same compound, the TGI (SF-539 CNS) was over 100 µM, the GI50 (UACC-257 melanoma) was over 89.3 µM and the TGI (UACC-257 melanoma) was over 100 µM. The GI50 (SW-620 colon) was over 100 µM, the TGI (SW-620 colon) was over 100 µM and the GI50 (UACC-62 melanoma) was over 61.8 µM. It also gave a TGI (UACC-62 melanoma) of over 100 µM, a GI50 (ACHN renal) of over 84.7 µM and a TGI (ACHN renal) of over 100 µM. For the same compound, the GI50 (HL-60(TB) leukemia) was over 87.7 µM, the TGI (HL-60(TB) leukemia) was over 100 µM and the GI50 (SNB-19 CNS) was over 100 µM. The TGI (SNB-19 CNS) was over 100 µM, the GI50 (LOX IMVI melanoma) was over 100 µM and the TGI (LOX IMVI melanoma) was over 100 µM. The GI50 (RPMI-8226 leukemia) was 54.2 µM and the TGI (RPMI-8226 leukemia) was over 100 µM.
